Assay results as given in paper PMC12298827, “Subchronic Toxicities of Four Per- and Polyfluoroalkyl Substances (PFASs) by Oral Exposure in Sprague–Dawley Rats” (Toxics, 2025).

System: male and female Sprague–Dawley rats
Experiment: 90-day subchronic oral gavage toxicity study
Type: in vivo, rat
Details: male
Method in brief: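 Rats dosed daily by oral gavage in corn oil (3 mL/kg) for 90 days, five dose levels plus control, n = 10/sex/group, euthanized SD 91. Endpoints: clinical observation, bodyweight, feed intake, FOB/locomotor activity, ophthalmology, terminal hematology, serum chemistry, coagulation, plasma parent PFAS, organ weights, histopathology. Groups vs control by ANOVA/Dunnett's (p<0.05).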

What does the source list for CC(=O)C(F)(F)C(F)(F)C(F)(F)F [MHFPK, Methyl heptafluoropropyl ketone]?
ALB (75 mg/kg-day): 3.18 ± 0.15 g/dL; ALPi (75 mg/kg-day): 121.9±37.5 U/L; APTT (75 mg/kg-day): 17.79 s; BUN (75 mg/kg-day): 15.8 ± 1.8 mg/dL; CHOL (75 mg/kg-day): 67.2 ± 7.1 mg/dL; GLOB (75 mg/kg-day): 3.70 ± 0.19 g/dL; GLUC (75 mg/kg-day): 214.9 ± 18.3 mg/dL; HCT (75 mg/kg-day): 50.90±1.81%; HGB (75 mg/kg-day): 15.70 ± 0.72 g/dL; Kidney Weight (75 mg/kg-day): 3.25 g; Kidney/Body Weight (75 mg/kg-day): 0.54%; Kidney/Brain Weight (75 mg/kg-day): 146%; Liver Weight (75 mg/kg-day): 15.73 g; Liver/Body Weight (75 mg/kg-day): 2.62%; Liver/Brain Weight (75 mg/kg-day): 706%; MPV (75 mg/kg-day): 7.92 ± 0.76 fL; PT (75 mg/kg-day): 16.37 s; RBC (75 mg/kg-day): 9.195±0.417 M/µL; Total BW change (75 mg/kg-day): 308.68 g; Total Food Consumed (75 mg/kg-day): 2218 g; % BW Gain (150 mg/kg-day): 104.78%; % Diff, % BW Gain (150 mg/kg-day): 7.09%; % Diff, Total BW change (150 mg/kg-day): 6.62%; % Diff, Total Food Consumed (150 mg/kg-day): 3.52%; A/G (150 mg/kg-day): 0.85±0.05 ratio; ABNEUT (150 mg/kg-day): 1.761±0.490 K/µL; ABRETi (150 mg/kg-day): 181.45±26.70 10^9/L; ABSEOS (150 mg/kg-day): 0.155±0.028 K/µL; ALB (150 mg/kg-day): 3.16 ± 0.18 g/dL; ALPi (150 mg/kg-day): 123.9±21.1 U/L; APTT (150 mg/kg-day): 18.41 s; BUN (150 mg/kg-day): 14.6 ± 1.7 mg/dL; CHOL (150 mg/kg-day): 71.1 ± 12.3 mg/dL; Decrease in the adrenal/BW ratio (150 mg/kg-day): 20%; GLOB (150 mg/kg-day): 3.72 ± 0.20 g/dL; GLUC (150 mg/kg-day): 206.8 ± 44.7 mg/dL; HCT (150 mg/kg-day): 50.21±1.86%; HGB (150 mg/kg-day): 15.30 ± 0.78 g/dL; Kidney Weight (150 mg/kg-day): 3.28 g; Kidney/Body Weight (150 mg/kg-day): 0.54%; Kidney/Brain Weight (150 mg/kg-day): 150%; Liver Weight (150 mg/kg-day): 15.50 g; Liver/Body Weight (150 mg/kg-day): 2.54%; Liver/Brain Weight (150 mg/kg-day): 709%; MPV (150 mg/kg-day): 8.53 ± 0.84 fL; PT (150 mg/kg-day): 16.77 s; RBC (150 mg/kg-day): 9.254±0.319 M/µL; Total BW change (150 mg/kg-day): 313.14 g; Total Food Consumed (150 mg/kg-day): 2253 g; % BW Gain (300 mg/kg-day): 102.36%; % Diff, % BW Gain (300 mg/kg-day): 4.62%; % Diff, Total BW change (300 mg/kg-day): 2.35%; % Diff, Total Food Consumed (300 mg/kg-day): 0.89%; A/G (300 mg/kg-day): 0.88±0.07 ratio; ABNEUT (300 mg/kg-day): 1.674±0.435 K/µL; ABRETi (300 mg/kg-day): 174.98±22.88 10^9/L; ABSEOS (300 mg/kg-day): 0.139±0.055 K/µL; ALB (300 mg/kg-day): 3.24 ± 0.18 g/dL; ALPi (300 mg/kg-day): 123.2±28.8 U/L; APTT (300 mg/kg-day): 17.66 s; Adrenal/BW ratio (300 mg/kg-day): no effect; BUN (300 mg/kg-day): 14.8 ± 3.7 mg/dL; CHOL (300 mg/kg-day): 76.0 ± 22.0 mg/dL; GLOB (300 mg/kg-day): 3.70 ± 0.19 g/dL; GLUC (300 mg/kg-day): 206.4 ± 24.4 mg/dL; HCT (300 mg/kg-day): 49.25±1.52%; HGB (300 mg/kg-day): 15.18 ± 0.47 g/dL; Kidney Weight (300 mg/kg-day): 3.24 g; Kidney/Body Weight (300 mg/kg-day): 0.55%; Kidney/Brain Weight (300 mg/kg-day): 144%; Liver Weight (300 mg/kg-day): 15.58 g; Liver/Body Weight (300 mg/kg-day): 2.61%; Liver/Brain Weight (300 mg/kg-day): 693%; MPV (300 mg/kg-day): 8.58 ± 0.84 fL; PT (300 mg/kg-day): 17.12 s; RBC (300 mg/kg-day): 8.946±0.337 M/µL; Total BW change (300 mg/kg-day): 300.61 g; Total Food Consumed (300 mg/kg-day): 2196 g
